According to patent US6545049B1, “Dimer-selective RXR modulators and methods for their use” (Ligand Pharmaceuticals Incorporated, priority 1995, dated 2003):

Assays:
RXRγ [1] = molecular target: T1, RXRγ (Mus musculus, UniProt P28705); test: RXR homodimer co-transfection assay, antagonist mode, RXRγ; conditions: read-out: RXRγ Potency IC50; antagonist potency in the presence of the known RXR agonist LGD1069; CV-1 cells
T1 sequence (P28705 1-463): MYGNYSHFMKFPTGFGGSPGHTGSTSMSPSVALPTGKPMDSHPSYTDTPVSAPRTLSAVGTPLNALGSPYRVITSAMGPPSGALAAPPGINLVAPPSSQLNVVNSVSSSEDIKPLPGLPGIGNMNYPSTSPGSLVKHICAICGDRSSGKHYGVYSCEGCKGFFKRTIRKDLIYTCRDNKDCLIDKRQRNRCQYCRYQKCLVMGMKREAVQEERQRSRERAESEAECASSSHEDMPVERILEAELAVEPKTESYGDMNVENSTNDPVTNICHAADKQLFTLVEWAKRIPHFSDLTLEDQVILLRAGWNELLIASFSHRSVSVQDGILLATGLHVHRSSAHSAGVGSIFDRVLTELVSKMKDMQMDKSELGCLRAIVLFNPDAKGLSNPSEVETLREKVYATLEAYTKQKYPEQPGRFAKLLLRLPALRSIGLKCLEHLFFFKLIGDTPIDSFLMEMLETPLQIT

RXRβ [2] = molecular target: T2, RXRβ (Mus musculus, UniProt P28704); test: RXR homodimer co-transfection assay, antagonist mode, RXRβ; conditions: read-out: RXRβ Potency IC50; antagonist potency in the presence of the known RXR agonist LGD1069; CV-1 cells
T2 sequence (P28704 1-520): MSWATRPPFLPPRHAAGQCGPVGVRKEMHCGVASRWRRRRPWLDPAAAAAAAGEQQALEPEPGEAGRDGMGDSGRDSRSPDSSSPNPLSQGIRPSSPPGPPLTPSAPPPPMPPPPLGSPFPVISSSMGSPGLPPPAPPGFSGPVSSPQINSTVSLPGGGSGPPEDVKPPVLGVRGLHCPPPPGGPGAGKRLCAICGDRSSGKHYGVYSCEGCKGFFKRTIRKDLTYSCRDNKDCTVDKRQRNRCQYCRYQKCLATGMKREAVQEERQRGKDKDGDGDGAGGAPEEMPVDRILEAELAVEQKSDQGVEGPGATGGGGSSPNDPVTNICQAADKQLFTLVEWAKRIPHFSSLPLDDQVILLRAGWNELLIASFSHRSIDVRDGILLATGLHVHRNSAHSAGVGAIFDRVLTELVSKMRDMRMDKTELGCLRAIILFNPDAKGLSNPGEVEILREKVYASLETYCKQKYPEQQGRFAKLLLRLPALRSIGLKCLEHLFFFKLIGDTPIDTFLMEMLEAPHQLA

RXRγ [3] = molecular target: T1, RXRγ; test: RXR binding, RXRγ; conditions: -v- tritiated LGD1069 and tritiated 9-cis retinoic acid
Protocol: (§1) Non-specific binding was defined as that binding remaining in the presence of 500 nM of the appropriate unlabelled compound. At the end of the incubation period, bound from free ligand were separated. The amount of bound tritiated retinoids was determined by liquid scintillation counting of an aliquot (700 μL) of the supernatant fluid or the hydroxylapatite pellet.
(§2) After correcting for non-specific binding, IC50 values were determined. […] The IC50 value was determined graphically from a log-logit plot of the data. The Kd values were determined by application of the Cheng-Prussof equation to the IC50 values, the labeled ligand concentration and the Kd of the labeled ligand.

RXRα [4] = molecular target: T3, RXRα (Homo sapiens, UniProt P19793); test: RXR homodimer co-transfection assay, antagonist mode, RXRα; conditions: read-out: RXRα Potency IC50; antagonist potency in the presence of the known RXR agonist LGD1069; CV-1 cells
T3 sequence (P19793 1-462): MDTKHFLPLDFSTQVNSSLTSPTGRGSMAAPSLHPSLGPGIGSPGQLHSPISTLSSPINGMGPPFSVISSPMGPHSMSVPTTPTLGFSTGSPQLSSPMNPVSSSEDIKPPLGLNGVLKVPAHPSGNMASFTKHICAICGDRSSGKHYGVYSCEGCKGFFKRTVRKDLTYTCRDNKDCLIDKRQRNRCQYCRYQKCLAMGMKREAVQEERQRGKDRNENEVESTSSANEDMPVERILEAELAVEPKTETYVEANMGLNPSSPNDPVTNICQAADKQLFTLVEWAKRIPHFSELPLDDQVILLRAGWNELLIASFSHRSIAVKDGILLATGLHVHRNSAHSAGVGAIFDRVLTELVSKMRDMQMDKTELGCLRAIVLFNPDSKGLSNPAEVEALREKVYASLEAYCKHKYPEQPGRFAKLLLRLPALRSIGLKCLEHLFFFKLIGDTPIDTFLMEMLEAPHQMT

RXRβ [5] = molecular target: T2, RXRβ; test: RXR binding, RXRβ; conditions: -v- tritiated LGD1069 and tritiated 9-cis retinoic acid
Protocol: as §1, §2

RXRα [6] = molecular target: T3, RXRα; test: RXR binding, RXRα; conditions: -v- tritiated LGD1069 and tritiated 9-cis retinoic acid
Protocol: as §1, §2

RXRα:PPARα heterodimer = molecular target: T4, RXRα:PPARα heterodimer (Homo sapiens, UniProt P19793); test: RXR heterodimer co-transfection assay (RXRα and PPARα, PPARα response element reporter)
T4 sequence (P19793 1-462): T3 sequence (P19793 1-462)
T4 sequence (Q07869 1-468 partner): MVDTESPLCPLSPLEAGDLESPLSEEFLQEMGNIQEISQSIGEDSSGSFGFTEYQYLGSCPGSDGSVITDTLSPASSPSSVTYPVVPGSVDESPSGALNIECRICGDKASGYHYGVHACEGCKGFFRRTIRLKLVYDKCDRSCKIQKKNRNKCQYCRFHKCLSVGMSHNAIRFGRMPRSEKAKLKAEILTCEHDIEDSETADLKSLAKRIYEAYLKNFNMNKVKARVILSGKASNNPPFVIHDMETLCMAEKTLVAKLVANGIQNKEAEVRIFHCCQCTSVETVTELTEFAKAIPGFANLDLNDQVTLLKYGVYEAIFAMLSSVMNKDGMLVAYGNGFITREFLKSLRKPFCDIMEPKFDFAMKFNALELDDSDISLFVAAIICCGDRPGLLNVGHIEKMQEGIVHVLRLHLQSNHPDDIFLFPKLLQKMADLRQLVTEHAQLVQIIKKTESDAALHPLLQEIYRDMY

Row | EC50 (RXRα:PPARα heterodimer) [nM] | Fold activation (RXRα:PPARα heterodimer; normalized luciferase values at 10−4M (clofibric acid) divided by values with vehicle) [fold] | Fold activation (RXRα:PPARα heterodimer; normalized luciferase values at 10−5M divided by values with vehicle) [fold] | Compound | IC50 (RXRγ [1]) [nM] | IC50 (RXRβ [2]) [nM] | Kd (RXRγ [3]) [nM] | IC50 (RXRα [4]) [nM] | Kd (RXRβ [5]) [nM] | Kd (RXRα [6]) [nM]
1 | – | – | – | 4-[(3-n-propyl-5,6,7,8-tetrahydro-5,5,8,8-tetramethyl-2-naphthyl)ethenyl]benzoic acid [Compound 102] | 1670 | 659 | 683 | 386 | 426 | 282
2 | – | – | – | 4-[(3-propoxy-5,6,7,8-tetrahydro-5,5,8,8-tetramethyl-2-naphthyl)carbonyl]benzoic acid O-methyloxime [Compound 110] | 211 | 217 | 66 | 80 | 77 | 40
3 | – | – | – | 4-[(3-propoxy-5,6,7,8-tetrahydro-5,5,8,8-tetramethyl-2-naphthyl)carbonyl]benzoic acid oxime [Compound 109] | 394 | 193 | 47 | 210 | 33 | 37
4 | 40000 | 6.5 | – | CC(C)(Oc1ccc(Cl)cc1)C(=O)O [Clofibric acid, clofibric acid, reference compound] | – | – | – | – | – | –
5 | – | – | – | CCCc1cc2c(cc1C1(c3ccc(C(=O)O)cc3)CC1)C(C)(C)CCC2(C)C [Compound 103, 4-[(3-n-propyl-5,6,7,8-tetrahydro-5,5,8,8-tetramethyl-2-naphthyl)cyclopropyl]benzoic acid] | 1670 | 701 | 936 | 498 | 846 | 389
6 | 200 | – | 4 | CC(C=CC=C(C)c1cc2c(cc1OCc1ccccc1)C(C)(C)CCC2(C)C)=CC(=O)O [Compound 128, (2E, 4E, 6Z)-7-[3-benzyloxy-5,6,7,8-tetrahydro-5,5,8,8-tetramethyl-2-naphthalen-2-yl]-3-methylocta-2,4,6-trienoic acid] | – | – | 27 | – | 23 | 9
7 | – | – | – | CCCOc1cc2c(cc1C1CC1C/C=C/C(C)=C/C(=O)O)C(C)(C)CCC2(C)C (stereo not shown) [Compound 152, (2E, 4E)-6-[2-(5,5,8,8-tetramethyl-3-propyloxy-5,6,7,8-tetrahydronaphthalen-2-yl)cyclopropan-1-yl]-3-methyl hexadienoic acid] | 428 | 337 | 21 | 195 | 45 | 8
8 | – | – | – | (2E, 4E)-7-[(5,5,8,8-tetramethyl-3-heptyloxy-5,6,7,8-tetrahydronaphthalen-2-yl)cyclopropan-1-yl]-3-methyl heptadienoic acid [Compound 156] | 47 | 62 | 9 | 18 | 7 | 11
9 | – | – | – | (2E, 4E)-7-[(5,5,8,8-tetramethyl-3-propyloxy-5,6,7,8-tetrahydronaphthalen-2-yl)cyclopropan-1-yl]-3-methyl heptadienoic acid [Compound 155] | 37 | 53 | 8 | 24 | 9 | 9
